From patent US9359592B2, “Method for differentiation into retinal cells from stem cells” (SNU R&DB Foundation, priority 2009, dated 2016)

Experiments:
[1] = tested on: retinal progenitor cells differentiated from hESCs (differentiation into photoreceptor cells); test: Immunochemical staining: positive rates of retinal cell markers after differentiation with substitutes for Wnt3a and Shh; type: cell-based, human; settings: mean, sample size = 3
Procedure: The eye field precursors (floating aggregates) were cultured in 8-well poly-D-lysine/laminin-coated slides (BD Biosciences, Bedford, Mass.) under the same conditions that were used for differentiation into the retinal progenitor cells, the neural retinal progenitor cells, the photoreceptor cell precursors and the photoreceptor cells.
After being blocked for 90 min, the slides in each differentiation step were incubated overnight at 4° C. with the following antibodies specific for cells of each differentiation step: rabbit-Blue-opsin (1:500, Chemicon), sheep-Chx10 (1:100, Chemicon), rabbit-Crx (1:200, Santa Cruz Biotechnology, Santa Cruz, Calif., USA), rabbit-GFAP (1:200, Invitrogen), mouse-human specific mitochondria (1:50, Chemicon), rabbit-human specific mitochondria (1:200, Chemicon), mouse-Islet1 (1:10, Developmental Studies Hydroma Bank, DSHB; Iowa City, Iowa, USA), mouse-Ki67 (1:100, Vector Laboratories, Peterborough, England), mouse-Mitf (1:1,000, abcam, Cambridge, Mass., USA), mouse-nestin (1:250, BD Sciences), rabbit-neurofilament-200 (1:1,000, Sigma-Aldrich), rabbit-Otx2 (1:100, abcam), rabbit-Pax2 (1:250, abcam), mouse-Pax6 (1:2, DSHB), mouse-peripherin2 (1:500, GenScript, Piscataway, N.J., USA), rabbit-Rax (1:250, abcam), rabbit-recoverin (1:1,000, Chemicon), retinal pigment epithelium 65 (RPE65, 1:100, Chemicon), rabbit-rhodopsin (1:500, Sigma-Aldrich), mouse-rhodopsin (1:500, Ret-P1, Lab Vision, Fremont, Calif., USA), mouse-rhodopsin (1:2,000, Ret-P1, Sigma-Aldrich), mouse-rom1 (1:50, ABR-Affinity Bioreagents, Golden, Colo., USA), rabbit-PDE6 beta (1:100, abcam), rabbit-phosducin (1:500, Santa Cruz Biotechnology), mouse-PKC-alpha (1:500, Sigma-Aldrich), mouse-Prox1 (1:2,000, Chemicon), mouse-Sox2 (1:250, R&D Systems), rabbit-synaptophysin (1:2,000, Santa Cruz Biotechnology), and rabbit-ZO-1 (1:100, Zymed-Invitrogen).
The cells cultured on the slides in each step were washed three times for 5 min with PBS and incubated at room temperature for 2 hrs with species-specific secondary antibody conjugated with Cy3 (1:800, Jackson Immunoresearch Laboratory) or Alexa488 (1:500, Invitrogen). A standard material suitable for the primary and the secondary antibody was used to examine non-specific staining or interaction between the antibodies. Afterwards, the cells were washed three times for 5 min with PBS, counterstained with DAPI (4′,6-diamidino-2 phenylindole) and mounted in Vectashield (Vector Laboratories), followed by visualization under an epifluorescence microscope (Nikon Eclipse, E800, Tokyo, Japan) and a confocal microscope (Leica, Leica Microsystems Inc, Bannockburn, Ill., USA or Zeiss LSM510, Carl Zeiss, Inc, Thornwood, N.Y., USA).
500 cells were counted from 20 microscopic fields randomly selected at 200 magnification and evaluated for positive responses to each antibody. Positive responses to antibodies were determined after at least three evaluations. […] All data were represented as mean standard error of the mean (S.E.M) with a statistical significance of p<0.05.

[2] = tested on: hESC-derived retinal progenitor cells / neural retinal progenitor cells; test: Immunochemical staining: marker positive rates during stepwise differentiation (Examples 4 to 6); type: cell-based, human; settings: 50 ng/ml Wnt3a for 5 days (day 18); 12.8% before addition
Procedure: The retinal progenitor cells generated in Example 3 were cultured in a medium for inducing differentiation into neural retinal progenitor cells [DMEM/F12 (Invitrogen), 1 mM L-glutamine (Invitrogen), 0.1 mM nonessential amino acids (Invitrogen), 0.1 mM mercaptoethanol (Sigma-Aldrich), 1% B27 supplement (Invitrogen), 1% N2 supplement (Invitrogen), 10 ng/ml noggin, 10 ng/ml IGF-1, 5 ng/ml FGF2, 50 ng/ml recombinant Wnt3a (R&D Systems)] supplied thereto for 5 days, thus giving neural retinal progenitor cells (FIG. 1).
The neural retinal progenitor cells generated in Example 4 were induced to differentiate into photoreceptor cell precursors by supplying a medium [DMEM/F12 (Invitrogen), 1 mM L-glutamine (Invitrogen), 0.1 mM nonessential amino acids (Invitrogen), 0.1 mM mercaptoethanol (Sigma-Aldrich), 1% B27 supplement (Invitrogen), 1% N2 supplement (Invitrogen), 10 ng/ml IGF-1, 50 ng/ml Wnt3a, and 250 ng/ml recombinant Shh (Sonic Hedgehog amino terminal peptide, Shh, R&D Systems)] for 3 days. Noggin and FGF2, both used in the previous step, were excluded from the medium (FIG. 1).
The differentiation of the cells obtained in Examples 3 to 6 was examined using an immunochemical staining method as follows. […]

In the case of `O=C1NC(=O)C(c2ccccc2[N+](=O)[O-])=C1Nc1ccc(O)c(Cl)c1` [SB415286], the “Positive rate of Crx” value ([1]; Wnt3a substitute at 30 uM) is reported as 53.7%, the “Positive rate of Ki67” value ([1]; Wnt3a substitute at 30 uM) is reported as 13.3% and the “Positive rate of Pax6” value ([1]; Wnt3a substitute at 30 uM) is reported as 89.1%. For the same molecule, the “Positive rate of Rom” value ([1]; Wnt3a substitute at 30 uM) was 59.5%, the “Positive rate of b-opsin” value ([1]; Wnt3a substitute at 30 uM) was 53.7% and the “Positive rate of peripherin2” value ([1]; Wnt3a substitute at 30 uM) was 9.1%. The “Positive rate of recoverin” value ([1]; Wnt3a substitute at 30 uM) was 70.0% and the “Positive rate of rhodopsin” value ([1]; Wnt3a substitute at 30 uM) was 69.3%.

With “Norrin: recombinant Norrin (R&D Systems), activator of the Wnt pathway that binds to Frizzled4 receptor” the “Positive rate of Crx” value ([1]; Wnt3a substitute at 50 ng/ml) was 39.3%, the “Positive rate of Ki67” value ([1]; Wnt3a substitute at 50 ng/ml) was 42.2% and the “Positive rate of Rom” value ([1]; Wnt3a substitute at 50 ng/ml) was 69.5%. For the same molecule, the “Positive rate of b-opsin” value ([1]; Wnt3a substitute at 50 ng/ml) was 71.1%, the “Positive rate of peripherin2” value ([1]; Wnt3a substitute at 50 ng/ml) was 24.9% and the “Positive rate of recoverin” value ([1]; Wnt3a substitute at 50 ng/ml) was 85.0%. For the same molecule, the “Positive rate of rhodopsin” value ([1]; Wnt3a substitute at 50 ng/ml) was 82.9%.

For `[Cl-].[Li+]` [LiCl], the “Positive rate of recoverin” value ([1]; Wnt3a substitute at 2.5 mM) was 64.1%, the “Positive rate of rhodopsin” value ([1]; Wnt3a substitute at 2.5 mM) was 56.2% and the “Positive rate of Crx” value ([1]; Wnt3a substitute at 5 mM) was 5.0%. For the same molecule, the “Positive rate of Ki67” value ([1]; Wnt3a substitute at 5 mM) was 33.3%, the “Positive rate of peripherin2” value ([1]; Wnt3a substitute at 5 mM) was 1.5% and the “Positive rate of recoverin” value ([1]; Wnt3a substitute at 5 mM) was 78.9%. For the same molecule, the “Positive rate of rhodopsin” value ([1]; Wnt3a substitute at 5 mM) was 68.5%.

With `O=C1Nc2cc(Br)ccc2/C1=C1/Nc2ccccc2/C1=N\O` [BIO, 6-bromoindirubin-3′ oxime] the “Positive rate of Crx” value ([1]; Wnt3a substitute at 2 uM) was 65.8%, the “Positive rate of Ki67” value ([1]; Wnt3a substitute at 2 uM) was 17.2% and the “Positive rate of Pax6” value ([1]; Wnt3a substitute at 2 uM) was 92.8%. The “Positive rate of Rom” value ([1]; Wnt3a substitute at 2 uM) was 60.3%, the “Positive rate of b-opsin” value ([1]; Wnt3a substitute at 2 uM) was 77.5% and the “Positive rate of peripherin2” value ([1]; Wnt3a substitute at 2 uM) was 33.9%. For the same molecule, the “Positive rate of recoverin” value ([1]; Wnt3a substitute at 2 uM) was 77.1% and the “Positive rate of rhodopsin” value ([1]; Wnt3a substitute at 2 uM) was 71.5%.

B1: Wnt5A: recombinant Wnt5A (R&D Systems), Wnt signaling pathway activator used instead of Wnt3a (protein, UniProt P41221 62-380, looked up)
Protein Wnt-5a: IIGAQPLCSQLAGLSQGQKKLCHLYQDHMQYIGEGAKTGIKECQYQFRHRRWNCSTVDNTSVFGRVMQIGSRETAFTYAVSAAGVVNAMSRACREGELSTCGCSRAARPKDLPRDWLWGGCGDNIDYGYRFAKEFVDARERERIHAKGSYESARILMNLHNNEAGRRTVYNLADVACKCHGVSGSCSLKTCWLQLADFRKVGDALKEKYDSAAAMRLNSRGKLVQVNSRFNSPTTQDLVYIDPSPDYCVRNESTGSLGTQGRLCNKTSEGMDGCELMCCGRGYDQFKTVQTERCHCKFHWCCYVKCKKCTEIVDQFVCK
For B1, the “Positive rate of Crx” value ([1]; Wnt3a substitute at 50 ng/ml) was 67.3%, the “Positive rate of Ki67” value ([1]; Wnt3a substitute at 50 ng/ml) was 41.3% and the “Positive rate of Rom” value ([1]; Wnt3a substitute at 50 ng/ml) was 58.8%. The “Positive rate of b-opsin” value ([1]; Wnt3a substitute at 50 ng/ml) was 55.0%, the “Positive rate of peripherin2” value ([1]; Wnt3a substitute at 50 ng/ml) was 20.7% and the “Positive rate of recoverin” value ([1]; Wnt3a substitute at 50 ng/ml) was 61.0%. The “Positive rate of rhodopsin” value ([1]; Wnt3a substitute at 50 ng/ml) was 59.5%, the “Positive rate of peripherin2” value ([1]; Wnt3a substitute at 100 ng/ml) was 14.2% and the “Positive rate of recoverin” value ([1]; Wnt3a substitute at 100 ng/ml) was 61.6%. The “Positive rate of rhodopsin” value ([1]; Wnt3a substitute at 100 ng/ml) was 56.1%.

B2: Wnt3a: recombinant Wnt3a (R&D Systems), Wnt signaling pathway activator (protein, UniProt P56704 19-352, looked up)
Protein Wnt-3a: SYPIWWSLAVGPQYSSLGSQPILCASIPGLVPKQLRFCRNYVEIMPSVAEGIKIGIQECQHQFRGRRWNCTTVHDSLAIFGPVLDKATRESAFVHAIASAGVAFAVTRSCAEGTAAICGCSSRHQGSPGKGWKWGGCSEDIEFGGMVSREFADARENRPDARSAMNRHNNEAGRQAIASHMHLKCKCHGLSGSCEVKTCWWSQPDFRAIGDFLKDKYDSASEMVVEKHRESRGWVETLRPRYTYFKVPTERDLVYYEASPNFCEPNPETGSFGTRDRTCNVSSHGIDGCDLLCCGRGHNARAERRREKCRCVFHWCCYVSCQECTRVYDVHTCK
With B2 the “Positive rate of the photoreceptor cell precursor marker Crx after Wnt3a addition” value [2] was 80.1%.

B3: Wntll: recombinant Wnt11 (R&D Systems), Wnt signaling pathway activator used instead of Wnt3a (protein, UniProt O96014 25-354, looked up)
Protein Wnt-11: IKWLALSKTPSALALNQTQHCKQLEGLVSAQVQLCRSNLELMHTVVHAAREVMKACRRAFADMRWNCSSIELAPNYLLDLERGTRESAFVYALSAAAISHAIARACTSGDLPGCSCGPVPGEPPGPGNRWGGCADNLSYGLLMGAKFSDAPMKVKKTGSQANKLMRLHNSEVGRQALRASLEMKCKCHGVSGSCSIRTCWKGLQELQDVAADLKTRYLSATKVVHRPMGTRKHLVPKDLDIRPVKDSELVYLQSSPDFCMKNEKVGSHGTQDRQCNKTSNGSDSCDLMCCGRGYNPYTDRVVERCHCKYHWCCYVTCRRCERTVERYVCK
With B3 the “Positive rate of Crx” value ([1]; Wnt3a substitute at 50 ng/ml) was 65.9%, the “Positive rate of Ki67” value ([1]; Wnt3a substitute at 50 ng/ml) was 40.1% and the “Positive rate of Rom” value ([1]; Wnt3a substitute at 50 ng/ml) was 50.2%. The “Positive rate of b-opsin” value ([1]; Wnt3a substitute at 50 ng/ml) was 30.6%, the “Positive rate of peripherin2” value ([1]; Wnt3a substitute at 50 ng/ml) was 0.5% and the “Positive rate of recoverin” value ([1]; Wnt3a substitute at 50 ng/ml) was 65.3%. For the same molecule, the “Positive rate of rhodopsin” value ([1]; Wnt3a substitute at 50 ng/ml) was 51.8%, the “Positive rate of peripherin2” value ([1]; Wnt3a substitute at 100 ng/ml) was 10.7% and the “Positive rate of recoverin” value ([1]; Wnt3a substitute at 100 ng/ml) was 61.8%. The “Positive rate of rhodopsin” value ([1]; Wnt3a substitute at 100 ng/ml) was 59.1%.

B4: Wntl: recombinant Wnt1 (PeproTech), Wnt signaling pathway activator used instead of Wnt3a (protein, UniProt P04628 28-370, looked up)
Proto-oncogene Wnt-1: ANSSGRWWGIVNVASSTNLLTDSKSLQLVLEPSLQLLSRKQRRLIRQNPGILHSVSGGLQSAVRECKWQFRNRRWNCPTAPGPHLFGKIVNRGCRETAFIFAITSAGVTHSVARSCSEGSIESCTCDYRRRGPGGPDWHWGGCSDNIDFGRLFGREFVDSGEKGRDLRFLMNLHNNEAGRTTVFSEMRQECKCHGMSGSCTVRTCWMRLPTLRAVGDVLRDRFDGASRVLYGNRGSNRASRAELLRLEPEDPAHKPPSPHDLVYFEKSPNFCTYSGRLGTAGTAGRACNSSSPALDGCELLCCGRGHRTRTQRVTERCNCTFHWCCHVSCRNCTHTRVLHECL
With B4 the “Positive rate of Crx” value ([1]; Wnt3a substitute at 50 ng/ml) was 60.3%, the “Positive rate of Ki67” value ([1]; Wnt3a substitute at 50 ng/ml) was 23.8% and the “Positive rate of Rom” value ([1]; Wnt3a substitute at 50 ng/ml) was 55.9%. The “Positive rate of b-opsin” value ([1]; Wnt3a substitute at 50 ng/ml) was 61.6%, the “Positive rate of peripherin2” value ([1]; Wnt3a substitute at 50 ng/ml) was 3.8% and the “Positive rate of recoverin” value ([1]; Wnt3a substitute at 50 ng/ml) was 70.9%. The “Positive rate of rhodopsin” value ([1]; Wnt3a substitute at 50 ng/ml) was 66.2%.
